Reference: paper PMC8924211 (Nature Communications, 2022)
Substitutions are numbered along the chain they refer to.

Assays:
Experiment in all cases: Calcium assay, HEK293/Gα16 cells, GAL2R mutants
Format in all cases: cell-based
GAL2R mutants [1] = molecular target: T1, GAL2R mutants (Homo sapiens, UniProt O43603, A170S); settings: GAL2R A170ECL2S
T1 construct: expressed in transfected cells; host or cells: HEK293
T1 sequence (O43603 1-387 A170S): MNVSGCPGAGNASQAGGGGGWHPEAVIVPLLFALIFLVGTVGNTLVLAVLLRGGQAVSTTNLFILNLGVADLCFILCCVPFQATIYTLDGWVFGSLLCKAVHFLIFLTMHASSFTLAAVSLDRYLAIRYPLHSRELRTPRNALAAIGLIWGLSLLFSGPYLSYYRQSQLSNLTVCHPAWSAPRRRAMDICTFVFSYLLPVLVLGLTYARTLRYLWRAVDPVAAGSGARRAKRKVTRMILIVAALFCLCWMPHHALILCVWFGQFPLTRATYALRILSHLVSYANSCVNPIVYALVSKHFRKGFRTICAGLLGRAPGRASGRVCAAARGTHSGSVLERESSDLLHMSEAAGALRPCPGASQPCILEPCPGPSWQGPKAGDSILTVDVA

GAL2R mutants [2] = molecular target: T2, GAL2R mutants (Homo sapiens, UniProt O43603, H102A); settings: GAL2R H1023.29A
T2 construct: expressed in transfected cells; host or cells: HEK293
T2 sequence (O43603 1-387 H102A): T1 sequence (O43603 1-387 A170S) with H102A, S170A

GAL2R mutants [3] = molecular target: T3, GAL2R mutants (Homo sapiens, UniProt O43603, Q82A); settings: GAL2R Q822.61A
T3 construct: expressed in transfected cells; host or cells: HEK293
T3 sequence (O43603 1-387 Q82A): T1 sequence (O43603 1-387 A170S) with Q82A, S170A

GAL2R mutants [4] = molecular target: T4, GAL2R mutants (Homo sapiens, UniProt O43603, L266A); settings: GAL2R L266ECL3A
T4 construct: expressed in transfected cells; host or cells: HEK293
T4 sequence (O43603 1-387 L266A): T1 sequence (O43603 1-387 A170S) with S170A, L266A

GAL2R mutants [5] = molecular target: T5, GAL2R mutants (Homo sapiens, UniProt O43603, T267A); settings: GAL2R T2677.28A
T5 construct: expressed in transfected cells; host or cells: HEK293
T5 sequence (O43603 1-387 T267A): T1 sequence (O43603 1-387 A170S) with S170A, T267A

[6] = response of 100 μM spexin compared to WT, mean ± S.E.M.
[7] = response of 100 μM spexin compared to WT

## spexin
GAL2R mutants [1]; [6]
  Emax: 17.66±5.3%
GAL2R mutants [1]; spexin, replicate 1
  EC50: 0.0954 µM
  Emax: 11.3367%
GAL2R mutants [1]; spexin, replicate 2
  EC50: 0.1514 µM
  Emax: 13.424%
GAL2R mutants [1]; spexin, replicate 3
  EC50: 0.1506 µM
  Emax: 28.2269%
GAL2R mutants [2]; [7]
  Emax: NR (NR, no response, refers to response < 10% compared to WT receptor (spexin at 100 μM))
GAL2R mutants [2]; spexin, replicate 1
  Emax: no response
GAL2R mutants [2]; spexin, replicate 2
  Emax: no response
GAL2R mutants [2]; spexin, replicate 3
  Emax: no response
GAL2R mutants [3]; [7]
  Emax: NR (NR, no response, refers to response < 10% compared to WT receptor (spexin at 100 μM))
GAL2R mutants [3]; spexin, replicate 1
  Emax: no response
GAL2R mutants [3]; spexin, replicate 2
  Emax: no response
GAL2R mutants [3]; spexin, replicate 3
  Emax: no response
GAL2R mutants [4]; [6]
  Emax: 103.14±6.2%
GAL2R mutants [4]; spexin, replicate 1
  EC50: 25.14 µM
  Emax: 98.5714%
GAL2R mutants [4]; spexin, replicate 2
  EC50: 15.28 µM
  Emax: 95.5224%
GAL2R mutants [4]; spexin, replicate 3
  EC50: 11.99 µM
  Emax: 115.328%
GAL2R mutants [5]; [6]
  Emax: 19.9±3.4%
GAL2R mutants [5]; spexin, replicate 1
  EC50: 0.0008339 µM
  Emax: 26.5588%
GAL2R mutants [5]; spexin, replicate 2
  EC50: 10.49 µM
  Emax: 17.6424%
GAL2R mutants [5]; spexin, replicate 3
  EC50: 1.506 µM
  Emax: 15.5083%
